Experimental data reported in PubChem BioAssay (NCI).
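Cultured in 96-well plates, cells were exposed to test compound for 48 hours across five concentrations. GI50 marks 50% less growth. TGI: concentration producing complete growth inhibition.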

What was measured:
Assay in all cases: NCI anticancer screen, dose series, 48 h
U251 CNS = test system: U251 CNS
CCRF-CEM leukemia = test system: CCRF-CEM leukemia
PC-3 prostate = test system: PC-3 prostate
OVCAR-4 ovarian = test system: OVCAR-4 ovarian
RXF 393 renal = test system: RXF 393 renal
NCI-H460 lung = test system: NCI-H460 lung
MDA-MB-231 breast = test system: MDA-MB-231 breast
K-562 leukemia = test system: K-562 leukemia
HT29 colon = test system: HT29 colon
IGROV1 ovarian = test system: IGROV1 ovarian
786-0 renal = test system: 786-0 renal
UO-31 renal = test system: UO-31 renal
NCI-H522 lung = test system: NCI-H522 lung
COLO 205 colon = test system: COLO 205 colon
RPMI-8226 leukemia = test system: RPMI-8226 leukemia
SF-295 CNS = test system: SF-295 CNS
SN12C renal = test system: SN12C renal
OVCAR-8 ovarian = test system: OVCAR-8 ovarian
HCT-15 colon = test system: HCT-15 colon
EKVX NSCLC = test system: EKVX NSCLC
MALME-3M melanoma = test system: MALME-3M melanoma
UACC-62 melanoma = test system: UACC-62 melanoma
KM12 colon = test system: KM12 colon
DU-145 prostate = test system: DU-145 prostate
SK-OV-3 ovarian = test system: SK-OV-3 ovarian
HOP-62 NSCLC = test system: HOP-62 NSCLC
CAKI-1 renal = test system: CAKI-1 renal
A498 renal = test system: A498 renal
LOX IMVI melanoma = test system: LOX IMVI melanoma
HS 578T breast = test system: HS 578T breast
SK-MEL-28 melanoma = test system: SK-MEL-28 melanoma
MCF7 breast = test system: MCF7 breast
SR leukemia = test system: SR leukemia
SNB-75 CNS = test system: SNB-75 CNS
BT-549 breast = test system: BT-549 breast
TK-10 renal = test system: TK-10 renal
SF-539 CNS = test system: SF-539 CNS
HCT-116 colon = test system: HCT-116 colon
SW-620 colon = test system: SW-620 colon
MDA-MB-435 = test system: MDA-MB-435
OVCAR-5 ovarian = test system: OVCAR-5 ovarian
HCC-2998 colon = test system: HCC-2998 colon
A549 NSCLC = test system: A549 NSCLC
NCI/ADR-RES ovarian = test system: NCI/ADR-RES ovarian
ACHN renal = test system: ACHN renal
MOLT-4 leukemia = test system: MOLT-4 leukemia
SNB-19 CNS = test system: SNB-19 CNS
SF-268 CNS = test system: SF-268 CNS
SK-MEL-2 melanoma = test system: SK-MEL-2 melanoma
NCI-H226 lung = test system: NCI-H226 lung
OVCAR-3 ovarian = test system: OVCAR-3 ovarian
HL-60(TB) leukemia = test system: HL-60(TB) leukemia
M14 melanoma = test system: M14 melanoma
HOP-92 NSCLC = test system: HOP-92 NSCLC
NCI-H23 lung = test system: NCI-H23 lung
T-47D breast = test system: T-47D breast
UACC-257 melanoma = test system: UACC-257 melanoma
SK-MEL-5 melanoma = test system: SK-MEL-5 melanoma

Which GI50 (U251 CNS) does the source give for `Cc1ccc(NS(=O)(=O)c2ccc(-c3cnc(C4CC4)o3)cc2)cc1C` here?
Its GI50 is 0.458 µM.

What about the TGI (U251 CNS) of the same compound?
Its TGI is greater than 33.9 µM.

What about the GI50 (CCRF-CEM leukemia) of the same compound?
The GI50 was 0.433 µM.

What about the TGI (CCRF-CEM leukemia) of the same compound?
Its TGI is greater than 59.3 µM.

What about the GI50 (PC-3 prostate) of the same compound?
Its GI50 is 0.432 µM.

And the TGI (PC-3 prostate)?
The TGI was greater than 27.6 µM.

And the GI50 (OVCAR-4 ovarian)?
Its GI50 is 0.912 µM.

And the TGI (OVCAR-4 ovarian)?
Its TGI is 10.4 µM.

And the GI50 (RXF 393 renal)?
The GI50 was 0.338 µM.

What about the TGI (RXF 393 renal) of the same compound?
The TGI was 3.89 µM.

And the GI50 (NCI-H460 lung)?
The GI50 was 0.481 µM.

And the TGI (NCI-H460 lung)?
Its TGI is 11.5 µM.

And the GI50 (MDA-MB-231 breast)?
Its GI50 is 0.797 µM.

What about the TGI (MDA-MB-231 breast) of the same compound?
Its TGI is 15.9 µM.

And the GI50 (K-562 leukemia)?
The GI50 was less than 0.0373 µM.

What about the TGI (K-562 leukemia) of the same compound?
The TGI was greater than 68.4 µM.

And the GI50 (HT29 colon)?
The GI50 was 0.33 µM.

What about the TGI (HT29 colon) of the same compound?
The TGI was 1.57 µM.

And the GI50 (IGROV1 ovarian)?
Its GI50 is 0.593 µM.

What about the TGI (IGROV1 ovarian) of the same compound?
The TGI was greater than 43.3 µM.

What about the GI50 (786-0 renal) of the same compound?
The GI50 was 0.544 µM.

And the TGI (786-0 renal)?
Its TGI is greater than 37.8 µM.

And the GI50 (UO-31 renal)?
Its GI50 is 0.839 µM.

What about the TGI (UO-31 renal) of the same compound?
The TGI was 7.74 µM.

What about the GI50 (NCI-H522 lung) of the same compound?
The GI50 was 0.267 µM.

What about the TGI (NCI-H522 lung) of the same compound?
The TGI was 3.28 µM.

What about the GI50 (COLO 205 colon) of the same compound?
The GI50 was 0.464 µM.

And the TGI (COLO 205 colon)?
The TGI was 1.84 µM.

What about the GI50 (RPMI-8226 leukemia) of the same compound?
The GI50 was 0.45 µM.

What about the TGI (RPMI-8226 leukemia) of the same compound?
The TGI was greater than 25.4 µM.

What about the GI50 (SF-295 CNS) of the same compound?
Its GI50 is 0.407 µM.

And the TGI (SF-295 CNS)?
The TGI was 3.47 µM.

And the GI50 (SN12C renal)?
The GI50 was 0.711 µM.

What about the TGI (SN12C renal) of the same compound?
The TGI was greater than 34 µM.

And the GI50 (OVCAR-8 ovarian)?
The GI50 was 0.916 µM.

What about the TGI (OVCAR-8 ovarian) of the same compound?
Its TGI is greater than 55.9 µM.

What about the GI50 (HCT-15 colon) of the same compound?
The GI50 was 0.302 µM.

And the TGI (HCT-15 colon)?
Its TGI is greater than 33.2 µM.

And the GI50 (EKVX NSCLC)?
Its GI50 is 0.713 µM.

And the TGI (EKVX NSCLC)?
Its TGI is greater than 45.4 µM.

And the GI50 (MALME-3M melanoma)?
Its GI50 is 0.683 µM.

And the TGI (MALME-3M melanoma)?
Its TGI is 18.1 µM.

What about the GI50 (UACC-62 melanoma) of the same compound?
Its GI50 is 0.383 µM.

What about the TGI (UACC-62 melanoma) of the same compound?
Its TGI is greater than 38 µM.

What about the GI50 (KM12 colon) of the same compound?
The GI50 was 0.279 µM.

And the TGI (KM12 colon)?
The TGI was greater than 32.6 µM.

And the GI50 (DU-145 prostate)?
Its GI50 is 0.972 µM.

And the TGI (DU-145 prostate)?
The TGI was greater than 68.7 µM.

And the GI50 (SK-OV-3 ovarian)?
The GI50 was 0.917 µM.

What about the TGI (SK-OV-3 ovarian) of the same compound?
Its TGI is greater than 29.1 µM.

What about the GI50 (HOP-62 NSCLC) of the same compound?
The GI50 was 0.557 µM.

What about the TGI (HOP-62 NSCLC) of the same compound?
Its TGI is greater than 40.1 µM.

And the GI50 (CAKI-1 renal)?
Its GI50 is 0.385 µM.

What about the TGI (CAKI-1 renal) of the same compound?
Its TGI is greater than 42.1 µM.

What about the GI50 (A498 renal) of the same compound?
Its GI50 is 0.228 µM.

And the TGI (A498 renal)?
The TGI was 0.932 µM.

What about the GI50 (LOX IMVI melanoma) of the same compound?
Its GI50 is 0.524 µM.

What about the TGI (LOX IMVI melanoma) of the same compound?
Its TGI is greater than 32.3 µM.

And the GI50 (HS 578T breast)?
The GI50 was 0.45 µM.

What about the TGI (HS 578T breast) of the same compound?
The TGI was 5.77 µM.

And the GI50 (SK-MEL-28 melanoma)?
The GI50 was 1.26 µM.

What about the TGI (SK-MEL-28 melanoma) of the same compound?
The TGI was greater than 45.4 µM.

And the GI50 (MCF7 breast)?
Its GI50 is 0.279 µM.

And the GI50 (SR leukemia)?
Its GI50 is 0.476 µM.

What about the TGI (SR leukemia) of the same compound?
Its TGI is greater than 100 µM.

And the GI50 (SNB-75 CNS)?
Its GI50 is 0.184 µM.

And the TGI (SNB-75 CNS)?
The TGI was 0.823 µM.

What about the GI50 (BT-549 breast) of the same compound?
Its GI50 is 0.715 µM.

What about the TGI (BT-549 breast) of the same compound?
Its TGI is 13.7 µM.

What about the GI50 (TK-10 renal) of the same compound?
Its GI50 is 1.44 µM.

What about the TGI (TK-10 renal) of the same compound?
The TGI was 8.03 µM.

What about the GI50 (SF-539 CNS) of the same compound?
The GI50 was 0.366 µM.

What about the TGI (SF-539 CNS) of the same compound?
Its TGI is 1.77 µM.

What about the GI50 (HCT-116 colon) of the same compound?
Its GI50 is 0.394 µM.

What about the TGI (HCT-116 colon) of the same compound?
Its TGI is 10.8 µM.

And the GI50 (SW-620 colon)?
Its GI50 is 0.341 µM.

And the TGI (SW-620 colon)?
Its TGI is greater than 72.2 µM.

What about the GI50 (MDA-MB-435) of the same compound?
Its GI50 is less than 0.0252 µM.

What about the TGI (MDA-MB-435) of the same compound?
The TGI was 2.46 µM.

What about the GI50 (OVCAR-5 ovarian) of the same compound?
Its GI50 is 1.31 µM.

And the TGI (OVCAR-5 ovarian)?
The TGI was greater than 38.8 µM.

And the GI50 (HCC-2998 colon)?
The GI50 was 1.57 µM.

And the TGI (HCC-2998 colon)?
The TGI was greater than 32.8 µM.

And the GI50 (A549 NSCLC)?
Its GI50 is 0.751 µM.

And the TGI (A549 NSCLC)?
The TGI was greater than 49.2 µM.

And the GI50 (NCI/ADR-RES ovarian)?
Its GI50 is 0.407 µM.

And the TGI (NCI/ADR-RES ovarian)?
The TGI was greater than 41.8 µM.

And the GI50 (ACHN renal)?
The GI50 was 0.673 µM.

What about the TGI (ACHN renal) of the same compound?
Its TGI is greater than 33.9 µM.

And the GI50 (MOLT-4 leukemia)?
The GI50 was 0.583 µM.

What about the TGI (MOLT-4 leukemia) of the same compound?
The TGI was greater than 52.7 µM.

What about the GI50 (SNB-19 CNS) of the same compound?
The GI50 was 0.522 µM.

What about the TGI (SNB-19 CNS) of the same compound?
The TGI was greater than 63.8 µM.

And the GI50 (SF-268 CNS)?
The GI50 was 1.11 µM.

What about the TGI (SF-268 CNS) of the same compound?
Its TGI is greater than 36.8 µM.

And the GI50 (SK-MEL-2 melanoma)?
The GI50 was 0.797 µM.

And the TGI (SK-MEL-2 melanoma)?
The TGI was 14.4 µM.

What about the GI50 (NCI-H226 lung) of the same compound?
The GI50 was 0.843 µM.

And the TGI (NCI-H226 lung)?
The TGI was greater than 28.4 µM.

What about the GI50 (OVCAR-3 ovarian) of the same compound?
Its GI50 is 0.342 µM.

What about the TGI (OVCAR-3 ovarian) of the same compound?
Its TGI is 12.5 µM.

What about the GI50 (HL-60(TB) leukemia) of the same compound?
Its GI50 is 0.259 µM.

What about the TGI (HL-60(TB) leukemia) of the same compound?
The TGI was 1.46 µM.

What about the GI50 (M14 melanoma) of the same compound?
Its GI50 is 0.375 µM.

And the TGI (M14 melanoma)?
The TGI was 11.8 µM.

And the GI50 (HOP-92 NSCLC)?
The GI50 was 0.308 µM.

And the TGI (HOP-92 NSCLC)?
Its TGI is 3.35 µM.

What about the GI50 (NCI-H23 lung) of the same compound?
Its GI50 is 1.13 µM.

What about the TGI (NCI-H23 lung) of the same compound?
Its TGI is greater than 57.8 µM.

And the GI50 (T-47D breast)?
The GI50 was 0.373 µM.

What about the TGI (T-47D breast) of the same compound?
The TGI was 16.7 µM.

And the GI50 (UACC-257 melanoma)?
The GI50 was 0.836 µM.

And the TGI (UACC-257 melanoma)?
The TGI was 9.55 µM.

And the GI50 (SK-MEL-5 melanoma)?
Its GI50 is 0.39 µM.

And the TGI (SK-MEL-5 melanoma)?
Its TGI is 1.7 µM.
